Test results taken from patent publication US10494380B2, “Nitrogen-containing tricyclic derivatives having HIV replication inhibitory activity” (priority 2015, dated 2019).
pEC50, pIC50: −log10 of the molar value. Read-outs that look alike come from different tables or passages of the source.

Key:
[1] = test system: sheep red blood cells (RBC); assay: Photohemolysis test (Test Example 13); format: cell-based; conditions: 0.0008 to 0.1 w/v %, 10 J/cm2 UV-irradiation (290-400 nm)
From the text: Aliquots of sheep red blood cells (RBC) suspension prepared with medium to make a 2.5 v/v % concentration are dispensed into microplates. The compound of the present invention was desolved with a vehicle to make target concentrations and then these solutions were immediately added (in concentrations of 0.0008 to 0.1 w/v %) into the microplates. The mixtures on the microplates were exposed to 10 J/cm2 of UV-irradiation (UV-A and UV-B, 290-400 nm) with a GL20SE lamp (SANKYO DENKI) and a FL20S-BLB lamp (Panasonic). After the UV-irradiation, the mixtures were centrifuged. Aliquots of supernatant were transferred to a microplate. Absorbance of the supernatants was measured at 540 nm and 630 nm for judgement of the potential of phototoxicity. In the study, two endpoints were evaluated in biomembrane impairment (% of photohemolysis index; PI) and hyperoxidation of lipid membrane (methemoglobin formation; met-Hb) with the absorbance at 540 nm and 630 nm, respectively. PI and met-Hb were assessed based on the negative criteria (−), PI<10% and changes in absorbance at 630 nm<0.05, respectively. All else was judged as positive (+).

CYP2C9 = CYP2C9 (Homo sapiens (Human), UniProt P11712); assay: CYP inhibition assay, tolbutamide methyl-hydroxylation (Test Example 4); format: in vitro ADME; conditions: pooled human hepatic microsome, 100 μmol/L tolbutamide, 15 minutes, 37° C.
Procedure: Using commercially available pooled human hepatic microsome, and employing, as markers, 7-ethoxyresorufin O-deethylation (CYP1A2), tolbutamide methyl-hydroxylation (CYP2C9), mephenytoin 4′-hydroxylation (CYP2C19), dextromethorphan O-demethylation (CYP2D6), and terfenadine hydroxylation (CYP3A4) as typical substrate metabolism reactions of human main five CYP enzyme forms (CYP1A2, 2C9, 2C19, 2D6, 3A4) an inhibitory degree of each metabolite production amount by a test compound was assessed.
The reaction conditions were as follows: substrate, 0.5 μmol/L ethoxyresorufin (CYP1A2), 100 μmol/L tolbutamide (CYP2C9), 50 μmol/L S-mephenytoin (CYP2C19), 5 μmol/L dextromethorphan (CYP2D6), 1 μmol/L terfenedine (CYP3A4); reaction time, 15 minutes; reaction temperature, 37° C.; enzyme, pooled human hepatic microsome 0.2 mg protein/mL; test drug concentration, 1, 5, 10, 20 μmol/L (four points).
Each five kinds of substrates, human hepatic microsome, and a test drug in 50 mmol/L Hepes buffer as a reaction solution was added to a 96-well plate as the composition ad described above, NADPH, as a coenzyme was added to initiate metabolism reactions as markers and, after the incubation at 37° C. for 15 minutes, a methanol/acetonitrile=1/1 (V/V) solution was added to stop the reaction. After the centrifugation at 3000 rpm for 15 minutes, resorufin (CYP1A2 metabolite) in the supernatant was quantified by a fluorescent multilabel counter and tolbutamide hydroxide (CYP2C9 metabolite), mephenytoin 4′ hydroxide (CYP2C19 metabolite), dextrorphan (CYP2D6 metabolite), and terfenadine alcohol (CYP3A4 metabolite) were quantified by LC/MS/MS.

CYP3A4 = CYP3A4 (Homo sapiens (Human), UniProt P08684); assay: CYP3A4 (MDZ) MBI test (Test Example 6); conditions: pooled human liver microsomes, midazolam 1-hydroxylation, preincubation 0 or 30 min
HIV (HTLV-IIIB strain) = assay: HIV replication inhibition assay (Test Example 1; MT-4 cells, MTT); format: cell-based; conditions: MT-4 cells, MTT; for pEC50: read-out: EC50; for EC90: read-out: EC90
How it was run: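 MT-4 cells (2.5×10^4/well) were infected with HIV HTLV-IIIB (60 pfu) in the presence of compound and cultured 4 days at 37 °C. Cell viability was read by MTT reduction (OD 560/690 nm). EC50 and EC90 are the concentrations inhibiting virus-induced cytotoxicity by 50% and 90%.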

HIV = format: cell-based; conditions: EC50 in the presence of human serum (25%) versus without human serum, MT-4 cells
How it was run: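 HIV-infected MT-4 cells (3×10^4/well, infected 1 h at 37° C) are grown 4 days with compound that was first mixed 1 h with human serum or with medium only. Potency shift is the EC50 with serum divided by the EC50 without serum.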

[2] = test system: T125A mutant virus (HIV-1 NL-432 recombinant molecular clone, IN gene); assay: HIV replication inhibition assay against integrase 124/125 mutant virus (Test Example 2); format: cell-based
How it was run: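 EC50 is the compound concentration blocking half of virus-induced cell death, measured by MTT (OD 560 nm, 690 nm reference) after 4 days at 37 °C. Integrase 124/125 mutant NL-432 virus from transfected 293T cells (60 pfu) was added to 2.5×10^4 MT-4 cells with compound.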

[3] = Human immunodeficiency virus 1, MT4, 96 h, HIV (HTLV-IIIB strain), four days
[4] = Human immunodeficiency virus 1, MT4, read-out: EC50 against T125A mutant virus, T125A mutant virus (HIV-1 NL-432 IN gene), MT-4 cells, MTT
[5] = HIV (HTLV-IIIB strain), four days
[6] = T125A mutant virus (HIV-1 NL-432 IN gene), MT-4 cells, MTT, read-out: EC50 against T125A mutant virus
[7] = HIV HTLV-IIIB strain, cultured four days

CYP3A4, sequence (P08684 whole entry): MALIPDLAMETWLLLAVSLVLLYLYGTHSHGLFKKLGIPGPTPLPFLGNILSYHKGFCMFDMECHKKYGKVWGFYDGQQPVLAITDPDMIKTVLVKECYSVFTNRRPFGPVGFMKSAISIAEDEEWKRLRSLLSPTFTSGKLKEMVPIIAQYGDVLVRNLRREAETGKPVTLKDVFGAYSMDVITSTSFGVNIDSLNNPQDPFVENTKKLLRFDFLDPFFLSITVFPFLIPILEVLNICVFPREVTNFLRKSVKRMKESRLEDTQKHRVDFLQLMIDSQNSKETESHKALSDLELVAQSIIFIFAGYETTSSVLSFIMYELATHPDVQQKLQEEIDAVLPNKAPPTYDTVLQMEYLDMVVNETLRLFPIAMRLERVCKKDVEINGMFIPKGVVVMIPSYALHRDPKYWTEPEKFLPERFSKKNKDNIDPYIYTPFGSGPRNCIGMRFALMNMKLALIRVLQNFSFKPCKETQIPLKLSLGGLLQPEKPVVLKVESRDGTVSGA
CYP2C9, sequence (P11712 whole entry): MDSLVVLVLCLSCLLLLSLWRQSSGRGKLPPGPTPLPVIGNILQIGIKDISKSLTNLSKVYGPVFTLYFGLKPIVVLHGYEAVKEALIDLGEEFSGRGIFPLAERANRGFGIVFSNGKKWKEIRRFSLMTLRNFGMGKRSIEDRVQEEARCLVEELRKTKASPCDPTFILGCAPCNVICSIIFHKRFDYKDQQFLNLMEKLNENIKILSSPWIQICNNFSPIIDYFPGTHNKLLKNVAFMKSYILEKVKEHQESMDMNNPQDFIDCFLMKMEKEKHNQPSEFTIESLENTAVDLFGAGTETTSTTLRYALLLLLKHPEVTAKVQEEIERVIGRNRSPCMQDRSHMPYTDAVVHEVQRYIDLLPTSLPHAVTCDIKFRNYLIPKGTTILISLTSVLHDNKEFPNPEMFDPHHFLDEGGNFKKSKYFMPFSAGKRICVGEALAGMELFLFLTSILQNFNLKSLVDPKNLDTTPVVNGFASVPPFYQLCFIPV

SMILES | Photohemolysis test, potential of phototoxicity (PI and met-Hb) [1] | pIC50 (CYP2C9) | CYP3A4 (MDZ) MBI, shifted IC (CYP3A4) | pEC50 (HIV (HTLV-IIIB strain); [3]) | EC90 (HIV (HTLV-IIIB strain); [3]) | Potency shift value (HIV) | pEC50 [2, 4] | pEC50 (HIV (HTLV-IIIB strain); [5]) | EC90 (HIV (HTLV-IIIB strain); [5]) | pEC50 [2, 6] | pEC50 (HIV (HTLV-IIIB strain); Human immunodeficiency virus 1, MT4, 96 h, HIV HTLV-IIIB strain, cultured four days) | pEC50 (HIV (HTLV-IIIB strain); [7])
Cc1ccc(-c2c([C@H](OC(C)(C)C)C(=O)O)c(C)c3c4c2cc(C)n4CCN3c2nc3c(s2)CN(C)CC3)cc1 [Compound I-293] | (−) (negative criteria (−), PI<10% and changes in absorbance at 630 nm<0.05, respectively) | < 4.70 | (−) (When a shifted IC was 1.0 or less, this was defined as negative) | 8.51 | 5.5 nM | 4.8 | 8.03 | – | – | – | – | –
Cc1ccc(-c2c(C(OC(C)(C)C)C(=O)O)c(C)c3c4c2cc(C)n4CCN3CCN(C)C)cc1 (stereo not shown) [Compound I-027] | (−) (negative criteria (−), PI<10% and changes in absorbance at 630 nm<0.05, respectively) | < 4.70 | (−) (When a shifted IC was 1.0 or less, this was defined as negative) | – | – | 1.4 | – | 8.00 | 16 nM | 7.59 | – | –
Cc1ccc(-c2c([C@H](OC(C)(C)C)C(=O)O)c(C)c3c4c2cc(C)n4CCN3c2ncc(CCN3CCCCC3)cn2)cc1 [Compound I-305] | (−) (negative criteria (−), PI<10% and changes in absorbance at 630 nm<0.05, respectively) | < 4.70 | (−) (When a shifted IC was 1.0 or less, this was defined as negative) | – | – | 3.6 | – | 8.43 | 4.9 nM | 7.92 | – | –
Cc1ccc(-c2c([C@H](OC(C)(C)C)C(=O)O)c(C)c3c4c2cc(C)n4CCN3c2ncc(OCCN(C)C)cn2)cc1 [Compound I-220] | (−) (negative criteria (−), PI<10% and changes in absorbance at 630 nm<0.05, respectively) | < 4.70 | (−) (When a shifted IC was 1.0 or less, this was defined as negative) | – | – | 3.7 | – | 8.22 | 11 nM | 7.85 | – | –
Cc1cnc(N2CCn3c(C)cc4c(-c5ccc(Cl)cc5)c([C@H](OC(C)(C)C)C(=O)O)c(C)c2c43)nc1 [Compound I-190] | (−) (negative criteria (−), PI<10% and changes in absorbance at 630 nm<0.05, respectively) | < 4.70 | (−) (When a shifted IC was 1.0 or less, this was defined as negative) | 9.08 | 1.3 nM | 21 | 8.68 | – | – | – | – | –
Cc1ccc(-c2c([C@H](OC(C)(C)C)C(=O)O)c(C)c3c4c2cc(C)n4CCN3c2ncc(CCN3CCOCC3)cn2)cc1 [Compound I-309] | (−) (negative criteria (−), PI<10% and changes in absorbance at 630 nm<0.05, respectively) | < 4.70 | (−) (When a shifted IC was 1.0 or less, this was defined as negative) | – | – | 13 | – | 8.66 | 1.5 nM | 8.33 | – | –
CCOc1cnc(N2CCn3c(C)cc4c(-c5ccc(Cl)cc5)c([C@H](OC(C)(C)C)C(=O)O)c(C)c2c43)nc1 [Compound I-181] | (−) (negative criteria (−), PI<10% and changes in absorbance at 630 nm<0.05, respectively) | < 4.70 | (−) (When a shifted IC was 1.0 or less, this was defined as negative) | – | 2.3 nM | 17 | 8.46 | – | – | – | 8.85 | –
Cc1ccc(-c2c([C@H](OC(C)(C)C)C(=O)O)c(C)c3c4c2cc(C)n4CCN3S(C)(=O)=O)cc1 [Compound I-003] | (−) (negative criteria (−), PI<10% and changes in absorbance at 630 nm<0.05, respectively) | – | (−) (When a shifted IC was 1.0 or less, this was defined as negative) | 8.89 | 1.7 nM | 14 | 8.05 | – | – | – | – | –
Cc1c([C@H](OC(C)(C)C)C(=O)O)c(-c2ccc(Cl)cc2)c2cc(C)n3c2c1N(c1ncc2ccccc2n1)CC3 [Compound I-157] | – | < 4.70 | (−) (When a shifted IC was 1.0 or less, this was defined as negative) | – | – | 12 | 7.92 | – | – | – | – | –
Cc1nc(N2CCn3c(C)cc4c(-c5ccc(Cl)cc5)c([C@H](OC(C)(C)C)C(=O)O)c(C)c2c43)no1 [Compound I-176] | (−) (negative criteria (−), PI<10% and changes in absorbance at 630 nm<0.05, respectively) | – | (−) (When a shifted IC was 1.0 or less, this was defined as negative) | – | – | 12 | – | – | 5.6 nM | 8.34 | – | 8.64
Cc1ccc(-c2c([C@H](OC(C)(C)C)C(=O)O)c(Cl)c3c4c2cc(C)n4CCN3C)cc1 [Compound I-187] | – | – | (−) (When a shifted IC was 1.0 or less, this was defined as negative) | – | – | 11 | – | – | 2.2 nM | 8.32 | – | 9.00
